Experimental data from patent US20250186405A1, “Compound For Use In Treating Narcolepsy” (Alkermes, Inc., priority 2023, published 2025).
Read-outs that look alike come from different tables or passages of the source.

Legend:
[1] = Part 3 relative bioavailability (tablet vs powder-in-capsule) with food effect: plasma PK, 10 mg; format: in vivo, human; settings: for increase of peak plasma concentration, fed vs fasted: 10 mg tablet; for AUC(0-inf) / half-life / Cmax / Tmax: human, plasma, oral
Method: Part 3 compared the relative bioavailability (RelBA) of Compound A between a tablet formulation and the powder-in-capsule formulation. In addition, the food effect (FE) on the bioavailability of Compound A was assessed following administration of tablet formulation. Dose levels were as follows:
The Part 3 (RelBA with FE) evaluation was conducted using a 2-sequence, 3-period crossover study design in approximately 12 subjects. Subjects in Part 3 were randomized 1:1 to receive 1 of 2 sequences consisting of 3 periods with up to 72 hours of washout between treatments. The first 2 periods were dosed under fasted state and the third period was dosed in a fed state (high-fat meal).
Sequence 1 began with powder-in-capsule formulation in Period 1 (fasted), followed by tablet formulation in Period 2 (fasted) and tablet formulation in Period 3 (fed). Sequence 2 began with tablet formulation in Period 1 (fasted), followed by powder-in-capsule formulation in Period 2 (fasted) and tablet formulation in Period 3 (fed).
In treatment period(s) under the fed condition, following overnight fast, all subjects were given a high-fat breakfast. Within 30 minutes of starting the consumption of the breakfast, the assigned treatment was administered. […] There was a 72-hour washout period between the treatments.
Relative bioavailability analysis: A mixed effects model was used to evaluate the effect of a tablet formulation on the PK of Compound A. The primary PK parameters, namely, Cmax, AUC0-t, and […], were logarithmically transformed and used as the dependent variable, with treatment (tablet formulation or powder-in-capsule) as a fixed effect, and subject as a random effect. The ratio of the geometric means of the 2 treatments was obtained from the analysis, and a 2-sided 90% CI for the ratio was estimated. In this comparison, the same dose level of Compound A administered under tablet formulation is the test and powder-in-capsule is the reference. Thus, the comparison of interest is as follows: Fasted in new formulation (Test) vs Fasted in powder-in-capsule (Reference).
Food effect analysis: A mixed effects model was used to evaluate the effect of a high-fat, high caloric meal on the PK of Compound A in the tablet formulation. The primary PK parameters, namely, Cmax, AUC0-t, and AUC0-∞, were logarithmically transformed and used as the dependent variable, with treatment (fed or fasted) as a fixed effect, and subject as a random effect. The ratio of the geometric means of the 2 treatments was obtained from the analysis, and a 2-sided 90% CI for the ratio was estimated. In this comparison, the same dose level of Compound A administered under fed conditions is the test and Compound A administered under fasted conditions is the reference. Thus, the comparison of interest is as follows: Fed a high-fat meal in tablet formulation (Test) vs Fasted in tablet formulation (Reference).
Food effect was studied following a high fat (cohort 1) and low fat (cohort 2) meal. Both cohorts were completed in independent studies. For cohort 1, a high-fat meal was served consisting of 800-1,000 total calories with 150 calories from protein, 250 calories from carbohydrates, 500-600 calories from fat (≥50 percent of calories from fat). For cohort 2, a low-fat meal was served consisting of 400-500 total calories with 100-125 calories from fat (25 percent of calories from fat).

[2] = tested on: subjects with narcolepsy type-2 (NT2); experiment: Part 5 NT2: Karolinska Sleepiness Scale (KSS); format: in vivo, human; settings: for Change From Day −1 in Average Karolinska Sleepiness Scale, LSM difference vs placebo: NT2, N = 9; for Change From Day −1 in Average Karolinska Sleepiness Scale, LSM: NT2, N = 9, average of 1, 2, 4, 6, 8 h
Method: At points within the study, subjects were asked to rate their sleepiness using the KSS with regard to the level of sleepiness they experienced over the past 5 minutes.
The KSS is a validated, self-reported outcome measure of subjective sleepiness. The KSS was developed as a one-dimensional measure of sleepiness and has been validated against assessments like EEG and electrooculography activity (Akerstedt and Gillberg 1990). The KSS is comprised of a single question that asks the subject to rate their sleepiness in the immediately preceding 5 minutes on a 9-point scale where 1=extremely alert and 9=very sleepy, great effort to keep awake, fighting sleep. The KSS takes approximately 10 to 15 seconds to complete. Thus, the KSS is well suited for repeated measurement at short intervals as it assesses situational sleepiness within a short timeframe.
The PD parameters in the POC evaluation (e.g., changes from baseline in sleep latency on MWT, number of errors on SART and level of sleepiness on KSS at matched time points) were summarized using descriptive statistics for each time point by dose level.

[3] = Part 4 NT1: plasma pharmacokinetics, single doses; format: in vivo; settings: human, oral; for Cmax / AUC(0-t): geometric mean
Method: Subjects were randomized to 1 of 4 sequences.
Blood samples (up to 5 mL per sample) were collected for PK analysis of Compound A and its metabolite(s). The actual time of sample collection was recorded. The PK samples of the subjects randomized to placebo treatment were not analyzed. Any remaining plasma PK samples were used to explore the presence of any additional metabolites and/or biomarkers.
Plasma and urine concentrations of Compound A and its metabolite(s) were measured using a validated high-performance liquid chromatography with tandem mass spectrometry.
The PK population was used for summaries of plasma Compound A and its metabolite(s) concentrations and for analyses, summaries, and listing of PK parameters. Dose proportionality for Cmax, AUC0-t, and AUC0-∞ was evaluated using a linear model of logarithmically transformed values to assess the slope parameter, and the 95% CI for the slope was estimated. Where a 95% CI of the slope includes 1, it was considered as evidence of dose proportionality for that PK parameter.

[4] = 10 mg, 10 mg Capsule (Fasted), Cohort 1, N = 9
[5] = 10 mg, 10 mg Tablet (Fasted), Cohort 1, N = 8
[6] = 10 mg, 10 mg Tablet (Fasted), Cohort 2
[7] = 10 mg, 10 mg Tablet (Fasted), Cohort 2, N = 8
[8] = 10 mg, 10 mg Tablet (Fed, high-fat), Cohort 1
[9] = 10 mg, 10 mg Tablet (Fed, low-fat), Cohort 2
[10] = 10 mg, 10 mg Tablet (Fed, low-fat), Cohort 2, N = 10

In the case of `CS(=O)(=O)N[C@H]1CCCN2C(=O)COc3ccccc3C3CCC(CC3)OCC12` (stereo partly drawn) [Compound A, N-[(4S,4aR,7α,10α)-1,2,3,4,4a,5,7,8,9,10,16,17-dodecahydro-17-oxo-7,10-ethanopyrido[1,2-d][1,7,4]benzodioxaazacyclotridecin-4-yl]methanesulfonamide], the “increase of peak plasma concentration, fed vs fasted” value ([1]; high-fat meal, Cohort 1) is reported as 3 fold, the “increase of peak plasma concentration, fed vs fasted” value ([1]; low-fat meal, Cohort 2) is reported as “approximately 2 fold” and the “AUC0-∞ ratio (tablet/capsule)” value ([1]; 10 mg, fasted) is reported as 1.2. For the same compound, the “Cmax ratio (tablet Cmax/capsule Cmax)” value ([1]; 10 mg, fasted) was 0.9, the AUC(0-inf) [1, 4] was 124 ng·h/mL and the half-life [1, 4] was 10.8 h. The Cmax ([1]; 10 mg, 10 mg Capsule (Fasted), Cohort 1, geometric mean) was 11.8 ng/mL, the Tmax ([1]; 10 mg, 10 mg Capsule (Fasted), Cohort 1, median) was 2 h and the AUC(0-inf) [1, 5] was 144 ng·h/mL. The half-life [1, 5] was 11 h, the Cmax ([1]; 10 mg, 10 mg Tablet (Fasted), Cohort 1, geometric mean) was 10.8 ng/mL and the Tmax ([1]; 10 mg, 10 mg Tablet (Fasted), Cohort 1, median) was 3.5 h. For the same compound, the Cmax [1, 6] was 14.2 ng/mL, the Tmax [1, 6] was 2.5 h and the AUC(0-inf) [1, 7] was 189 ng·h/mL. The half-life [1, 7] was 9.22 h, the AUC(0-inf) [1, 8] was 140 ng·h/mL and the Cmax [1, 8] was 30.1 ng/mL. The half-life [1, 8] was 2.8 h, the Tmax ([1]; 10 mg, 10 mg Tablet (Fed, high-fat), Cohort 1, median) was 3.5 h and the Cmax [1, 9] was 32.1 ng/mL. It also gave a Tmax [1, 9] of 3.01 h, an AUC(0-inf) [1, 10] of 180 ng·h/mL and a half-life [1, 10] of 9.69 h. The “Change From Day −1 in Average Karolinska Sleepiness Scale, LSM difference vs placebo” value ([2]; 5 mg) was −0.31, the “Change From Day −1 in Average Karolinska Sleepiness Scale, LSM” value ([2]; 5 mg) was −0.68 and the “Change From Day −1 in Average Karolinska Sleepiness Scale, LSM difference vs placebo” value ([2]; 12 mg) was −0.60. The “Change From Day −1 in Average Karolinska Sleepiness Scale, LSM” value ([2]; 12 mg) was −0.97, the “Change From Day −1 in Average Karolinska Sleepiness Scale, LSM difference vs placebo” value ([2]; 25 mg) was −1.42 and the “Change From Day −1 in Average Karolinska Sleepiness Scale, LSM” value ([2]; 25 mg) was −1.78. For the same compound, the “LS mean difference vs placebo in change from Day −1, average KSS” value (“LS mean difference vs placebo in change” for short) ([2]; NT2, 5 mg) was −0.31, the “LS mean difference vs placebo in change” value ([2]; NT2, 12 mg) was −0.60 and the “LS mean difference vs placebo in change” value ([2]; NT2, 25 mg) was −1.42. It also gave a Tmax ([3]; 1 mg, NT1, 1 mg single dose, median, N = 3, read-out: Tmax) of 1.5 h, a Tmax ([3]; 3 mg, NT1, 3 mg single dose, median, N = 4, read-out: Tmax) of 1.5 h and a Tmax ([3]; 8 mg, NT1, 8 mg single dose, median, N = 3, read-out: Tmax) of 3 h. The Tmax ([3]; 8 mg, NT1, single dose 1, 3 and 8 mg (range 0.5 to 4.0), read-out: median Tmax) was 1.5 h, the Cmax ([3]; NT1, 1 mg single dose, N = 3) was 4.39 ng/mL and the AUC(0-t) ([3]; NT1, 1 mg single dose, N = 3, read-out: AUC0-24) was 19.5 ng·h/mL. For the same compound, the Cmax ([3]; NT1, 3 mg single dose, N = 4) was 11.6 ng/mL, the AUC(0-t) ([3]; NT1, 3 mg single dose, N = 4, read-out: AUC0-24) was 59.1 ng·h/mL and the Cmax ([3]; NT1, 8 mg single dose, N = 3) was 27.9 ng/mL. It also gave an AUC(0-t) ([3]; NT1, 8 mg single dose, N = 3, read-out: AUC0-24) of 169 ng·h/mL.
